{"source": "paper PMC6193035", "about": "“Novel small molecules affecting cell membrane as potential therapeutics for avian pathogenic Escherichia coli” (Scientific Reports, 2018)", "key": {"[1]": {"tested_on": "intracellular APEC O78, O2, and O1 in infected Caco-2, HD11, and THP1 cells", "assay": "Intracellular survival assay, statements over all serotypes and cells", "type": "cell-based, Escherichia coli", "conditions": "Escherichia coli, 6 h, O78, O2 and O1; Caco-2, HD11, THP-1; 6 h; read-out: concentration clearing intracellular APEC", "method": "(§1) Intracellular survival assay was conducted as described previously[28],[29] to determine the effect of cidal SMs on APEC survival in phagocytic (HD11, THP-1) and non-phagocytic (Caco-2) cells. Briefly, mid-logarithmic phase grown APEC O78, O1, and O2 were washed and adjusted to 1 × 10^7 CFU/mL in cell culture incomplete media (no FBS and antibiotics). One-hundred microlitres adjusted APEC suspension was added at multiplicity of infection (MOI) 10 to wells of 96-well cell culture plate containing cultured macrophage (HD11, THP-1) and epithelial cells (Caco-2) and incubated for 1 h and 3 h, respectively. […] The cells were then lysed with 100 µL of 0.1% Triton X-100 for 5 mins, serially diluted, and plated on LB agar plate to enumerate viable bacteria. The intracellular bacteria in SMs treated wells were compared with DMSO (1%) treated wells. Two independent experiments in duplicate wells for each concentration of SMs were conducted."}, "[2]": {"tested_on": "APEC O78", "assay": "Loss of 260/280 nm absorbing materials assay", "type": "cell-based, Escherichia coli", "conditions": "2X MBC, 1 h", "method": "Membrane permeability assays (crystal violet (CV) uptake and loss of 260/280 nm absorbing materials) were conducted as described previously. […] CV uptake was measured using the formula: (OD DMSO − OD SM/OD DMSO × 100). Two independent experiments in duplicates were conducted."}, "[3]": {"tested_on": "APEC O115", "assay": "MIC and MBC determination in M63 media", "type": "cell-based", "conditions": "Escherichia coli"}, "[4]": {"tested_on": "APEC O2", "assay": "MIC and MBC determination in M63 media", "type": "cell-based", "conditions": "Escherichia coli"}, "[5]": {"tested_on": "APEC O78", "assay": "MIC and MBC determination in M63 media", "type": "cell-based, Escherichia coli", "method": "(§2) One microlitre SM of each concentration was transferred to each well of a 96-well plate containing 100 µL of the 0.05 OD600 adjusted APEC O78 culture in M63 media. Growth was monitored in Sunrise - Absorbance microplate reader as described above. MIC was indicated by lowest concentration of SM with non-elevated OD600 measurement. MBC was determined by absence of APEC growth on LB agar plate following subculture. […] Two independent experiments were conducted."}, "[6]": {"tested_on": "APEC O78-53", "assay": "MIC and MBC determination in M63 media", "type": "cell-based", "conditions": "Escherichia coli; APEC O78-53, M63 media", "method": "as §2"}, "[7]": {"tested_on": "intracellular APEC O2 in Caco-2 cells", "assay": "Intracellular survival assay", "type": "cell-based, Escherichia coli", "method": "as §1"}, "[8]": {"tested_on": "intracellular APEC O2 in HD11 cells", "assay": "Intracellular survival assay", "type": "cell-based, Escherichia coli", "method": "as §1"}, "[9]": {"tested_on": "intracellular APEC O78 in HD11 cells", "assay": "Intracellular survival assay", "type": "cell-based, Escherichia coli", "method": "as §1"}, "[10]": {"tested_on": "intracellular APEC O78 in Caco-2 cells", "assay": "Intracellular survival assay", "type": "cell-based, Escherichia coli", "method": "as §1"}, "[11]": {"tested_on": "intracellular APEC O78 in THP-1 cells", "assay": "Intracellular survival assay", "type": "cell-based, Escherichia coli", "method": "as §1"}, "[12]": {"tested_on": "intracellular APEC O1 in HD11 cells", "assay": "Intracellular survival assay", "type": "cell-based, Escherichia coli", "method": "as §1"}, "[13]": {"tested_on": "intracellular APEC O2 in THP-1 cells", "assay": "Intracellular survival assay", "type": "cell-based, Escherichia coli", "method": "as §1"}, "[14]": {"tested_on": "intracellular APEC O1 in THP-1 cells", "assay": "Intracellular survival assay", "type": "cell-based, Escherichia coli", "method": "as §1"}, "[15]": {"tested_on": "intracellular APEC O1 in Caco-2 cells", "assay": "Intracellular survival assay", "type": "cell-based, Escherichia coli", "method": "as §1"}, "[16]": {"tested_on": "biofilm embedded APEC O78", "assay": "MBEC High-throughput (HTP) assay", "type": "cell-based, Escherichia coli", "conditions": "18 h challenge in M63 media", "method": "The effect of cidal SMs against biofilm embedded APEC was determined using MBEC High-throughput (HTP) assay (Innovotech Inc., AB, Canada)[22]. Briefly, 150 μL of 0.05 OD600 adjusted APEC O78 culture was aliquoted into each well of the MBEC device containing polystyrene pegs and incubated at 37 °C for 36 h in LB media under stationary condition. […] The plate was incubated in the dark for 18 h at 37 °C with rotation at 110 rpm. The DMSO (1%) and […] media were used as positive and negative controls, respectively. Following incubation, MIC of SMs in challenged plate was recorded. The SMs exposed pegs were then transferred to a new 96-well plate containing PBS and sonicated for 30 mins (Aquasonic ultrasonic cleaner, VWR) to disrupt the biofilm. The sonicated suspensions were ten-fold serially diluted and plated on LB agar plate. Biofilm embedded APEC bacteria were enumerated and minimum biofilm eradication concentration (MBEC) of SMs were determined as described previously. Two independent experiments were conducted."}}, "note": "Marks after values point to notes of the source that are not given here."}
{"smiles": "COc1cc(CNCCc2ccc(C)cc2)ccc1OCC(O)CN1CCCC1", "note": "(stereo not shown) [SM3]", "values": [{"measurement": "minimal effective concentration", "setting": "[1]", "value": "≥ 100", "unit": "µM"}, {"measurement": "280 nm absorbing materials in supernatant compared with DMSO", "setting": "[2]", "value": "significantly (P < 0.05, Student’s t-test) increased"}, {"measurement": "Absorbance 280 nm of treated supernatant", "setting": "[2]; DMSO 2.58, superscript a P < 0.05 vs DMSO", "value": "2.84^a"}, {"measurement": "Absorbance 260 nm of treated supernatant", "setting": "[2]; DMSO 3.77, superscript a P < 0.05 vs DMSO", "value": 3.77}, {"measurement": "MBC", "setting": "[3]", "value": 100, "unit": "µM"}, {"measurement": "MIC", "setting": "[3]", "value": 100, "unit": "µM"}, {"measurement": "MBC", "setting": "[4]", "value": 200, "unit": "µM"}, {"measurement": "MIC", "setting": "[4]", "value": 100, "unit": "µM"}, {"measurement": "MBC relative to MIC", "setting": "[5]", "value": "identical to MIC"}, {"measurement": "MIC", "setting": "[5]; Escherichia coli", "value": 100, "unit": "µM"}, {"measurement": "MBC", "setting": "[5]; Escherichia coli, subculture on LB agar", "value": 100, "unit": "µM"}, {"measurement": "MBC", "setting": "[6]", "value": 200, "unit": "µM"}, {"measurement": "MIC", "setting": "[6]", "value": 100, "unit": "µM"}, {"measurement": "minimal effective concentration", "setting": "[7]; Escherichia coli, O2, Caco-2, 6 h treatment, read-out: SMs intracellular APEC clearance concentration", "value": "> 200", "unit": "µM"}, {"measurement": "concentration at which the SM significantly (P < 0.01) reduced intracellular APEC (superscript of t-statistic)", "setting": "[7]; O2, Caco-2, 6 h", "value": "b (1X MIC)"}, {"measurement": "minimal effective concentration", "setting": "[8]; Escherichia coli, O2, HD11, 6 h treatment, read-out: SMs intracellular APEC clearance concentration", "value": 200, "unit": "µM"}, {"measurement": "intracellular APEC clearance concentration as multiple of MIC (superscript)", "setting": "[8]; O2, HD11", "value": "b (2X MIC)"}, {"measurement": "concentration at which the SM significantly (P < 0.01) reduced intracellular APEC (superscript of t-statistic)", "setting": "[8]; O2, HD11, 6 h", "value": "a (0.5X MIC)"}, {"measurement": "minimal effective concentration", "setting": "[9]; Escherichia coli, O78, HD11, 6 h treatment, read-out: SMs intracellular APEC clearance concentration", "value": 100, "unit": "µM"}, {"measurement": "intracellular APEC clearance concentration as multiple of MIC (superscript)", "setting": "[9]; O78, HD11", "value": "a (1X MIC)"}, {"measurement": "concentration at which the SM significantly (P < 0.01) reduced intracellular APEC (superscript of t-statistic)", "setting": "[9]; O78, HD11, 6 h", "value": "a (0.5X MIC)"}, {"measurement": "minimal effective concentration", "setting": "[10]; Escherichia coli, O78, Caco-2, 6 h treatment, read-out: SMs intracellular APEC clearance concentration", "value": 100, "unit": "µM"}, {"measurement": "intracellular APEC clearance concentration as multiple of MIC (superscript)", "setting": "[10]; O78, Caco-2", "value": "a (1X MIC)"}, {"measurement": "concentration at which the SM significantly (P < 0.01) reduced intracellular APEC (superscript of t-statistic)", "setting": "[10]; O78, Caco-2, 6 h", "value": "a (0.5X MIC)"}, {"measurement": "minimal effective concentration", "setting": "[11]; Escherichia coli, O78, THP-1, 6 h treatment, read-out: SMs intracellular APEC clearance concentration", "value": 100, "unit": "µM"}, {"measurement": "intracellular APEC clearance concentration as multiple of MIC (superscript)", "setting": "[11]; O78, THP-1", "value": "a (1X MIC)"}, {"measurement": "concentration at which the SM significantly (P < 0.01) reduced intracellular APEC (superscript of t-statistic)", "setting": "[11]; O78, THP-1, 6 h", "value": "a (0.5X MIC)"}, {"measurement": "minimal effective concentration", "setting": "[12]; Escherichia coli, O1, HD11, 6 h treatment, read-out: SMs intracellular APEC clearance concentration", "value": 200, "unit": "µM"}, {"measurement": "concentration at which the SM significantly (P < 0.01) reduced intracellular APEC (superscript of t-statistic)", "setting": "[12]; O1, HD11, 6 h", "value": "a (0.5X MIC)"}, {"measurement": "minimal effective concentration", "setting": "[13]; Escherichia coli, O2, THP-1, 6 h treatment, read-out: SMs intracellular APEC clearance concentration", "value": 100, "unit": "µM"}, {"measurement": "concentration at which the SM significantly (P < 0.01) reduced intracellular APEC (superscript of t-statistic)", "setting": "[13]; O2, THP-1, 6 h", "value": "a (0.5X MIC)"}, {"measurement": "minimal effective concentration", "setting": "[14]; Escherichia coli, O1, THP-1, 6 h treatment, read-out: SMs intracellular APEC clearance concentration", "value": 200, "unit": "µM"}, {"measurement": "intracellular APEC clearance concentration as multiple of MIC (superscript)", "setting": "[14]; O1, THP-1", "value": "b (2X MIC)"}, {"measurement": "concentration at which the SM significantly (P < 0.01) reduced intracellular APEC (superscript of t-statistic)", "setting": "[14]; O1, THP-1, 6 h", "value": "a (0.5X MIC)"}, {"measurement": "minimal effective concentration", "setting": "[15]; Escherichia coli, O1, Caco-2, 6 h treatment, read-out: SMs intracellular APEC clearance concentration", "value": "> 200", "unit": "µM"}, {"measurement": "concentration at which the SM significantly (P < 0.01) reduced intracellular APEC (superscript of t-statistic)", "setting": "[15]; O1, Caco-2, 6 h", "value": "c (2XMIC)"}, {"measurement": "MBEC as multiple of MIC (superscript)", "setting": "[16]", "value": "b (1X MIC)"}]}
